Reference: article PMC8694022, “Molecular Docking-Based Screening for Novel Inhibitors of the Human Immunodeficiency Virus Type 1 Protease that Effectively Reduce the Viral Replication in Human Cells” (Journal of AIDS & clinical research, 2021)

What was measured:
HIV-1 PR subtype A = biological target: T1, HIV-1 PR subtype A (Human immunodeficiency virus type 1 group M subtype A, UniProt P24740); experiment: In vitro PR inhibition assay, subtype A; assay type: biochemical; parameters: key: [+] or [−] indicating PR inhibition or no inhibition, respectively; [+] or [−] indicating PR inhibition or no inhibition, respectively; conditions: compound at 80 μM, 37 °C
T1 construct: HIV type 1 (HIV-1) PR is a homodimeric enzyme of 99 amino acids; made in house
Protocol: (§1) The compounds were obtained from the NCI/DTP and solubilized in DMSO (Sigma) for use in HIV-1 PR inhibition assays. Cloning, expression, and purification procedures of HIV-1 PRs obtained from […] samples have been previously described elsewhere. For detailed information of mutations harbored in the multi PI-resistant HIV-1PR as compared to the PI-sensitive PR, full amino acid sequences is given in supplementary materials (Figure S1). HIV-1 PRs subtype variants were assayed kinetically at 80 μM for inhibitory activity at 37 °C using selected compounds as previously described.
(§2) We explored the hypothesis that compounds selected in silico for binding to the hinge region of PR are effective as inhibitors of HIV-1 replication, including multi-PI resistant viruses, in human cells. Our of 139,739 compounds, the top 40 highest-scoring compounds targeting the structural pockets in the hinge of the PR (Figure S1) were obtained from the NCI/DTP for use in HIV PR inhibition assays. Compounds were initially tested in vitro at 80 μM to screen for inhibitory activity against PR subtypes A, B or C. Compounds inhibiting at least one subtype of the PR were considered as candidate compounds for further experiments.

HIV-1 PR subtype B = biological target: T2, HIV-1 PR subtype B (Human immunodeficiency virus type 1 group M subtype B, UniProt P04585); experiment: In vitro PR inhibition assay, subtype B; assay type: biochemical; parameters: key: [+] or [−] indicating PR inhibition or no inhibition, respectively; [+] or [−] indicating PR inhibition or no inhibition, respectively; conditions: compound at 80 μM, 37 °C
T2 construct: HIV type 1 (HIV-1) PR is a homodimeric enzyme of 99 amino acids; made in house
Protocol: as §1, §2

HIV-1 PR subtype C = biological target: T3, HIV-1 PR subtype C (Human immunodeficiency virus type 1 group M subtype C, UniProt Q75002); experiment: In vitro PR inhibition assay, subtype C; assay type: biochemical; parameters: key: [+] or [−] indicating PR inhibition or no inhibition, respectively; [+] or [−] indicating PR inhibition or no inhibition, respectively; conditions: compound at 80 μM, 37 °C
T3 construct: HIV type 1 (HIV-1) PR is a homodimeric enzyme of 99 amino acids; made in house
Protocol: as §1, §2

TZM-bl cells = experiment: Cell viability assay (CellTiter 96 AQueous) in TZM-bl cells; assay type: cell-based, human
Protocol: (§3) Viability in presence of compounds was measured at day 4 or 7, TZM-bl cells or PBMCs, using CellTiter 96 AQueous one solution cell proliferation assay (Promega) following manufacturer instructions. Toxicity of compounds was defined as a concentration that produced more than 10% decline in viability of TZM-bl cells or PBMCs were viable at days 4 or 7 of exposure, respectively, compared with DMSO-treated controls.

PBMCs = experiment: Cell viability assay (CellTiter 96 AQueous) in PBMCs; assay type: cell-based, human; conditions: 200 μM, day 7
Protocol: as §3

HIV-1AD [1] = experiment: Anti-viral activity in TZM-bl cells, PI-sensitive HIV-1AD (luciferase); assay type: cell-based
Protocol: (§4) Anti-viral activity was evaluated ex vivo by adding the highest non-toxic concentration of compound or 25uM RTV (Sigma) solubilized in DMSO on the day of infection by PI-sensitive (HIV-1AD) or multi (RTV and IDV) PI-resistant (HIV-1AD02) HIV-1 variants at 25 or 45 TCID50 per ml for PBMCs or TZM-bl cells, respectively. Replication was determined on post-infection day 7 in PBMC by measuring supernatant p24 antigen levels (Perkin-Elmer), or day 4 in TZM-bl cells by measuring luciferase activity using the luciferase assay system (Promega, Madison, WI) and the microplate luminometer Monolight 3096 (BD Biosciences, San Jose, CA). Inhibitory concentration (IC)50 was calculated based on anti-viral activity in TZM-bl cells with a nonlinear regression analysis (GraphPad Prism 6 Software). Reduction of viral replication by more than 50% was considered successful anti-viral activity. Combinatorial effect of drug with RTV was tested at IC50, and higher or lower concentrations than IC50.

HIV-1AD02 [2] = experiment: Anti-viral activity in TZM-bl cells, multi PI-resistant HIV-1AD02 (luciferase); assay type: cell-based
Protocol: as §4

HIV-1AD [3] = experiment: Anti-viral activity alone or combined with 25 µM RTV, relative to 25 µM RTV, HIV-1AD; assay type: cell-based
Protocol: as §4
(§5) Combinatorial effect of drug was tested combining 25 μM RTV and higher or lower concentrations than IC50 of lead compounds. Combinations of compounds 18, 22, 27, 32 or 35 with 25 μM RTV were non-toxic in TZM-bl cells. Combination with RTV increased antiviral activity of all compounds against both PI-sensitive and PI-resistant HIV-1 variants (Figure 2).
(§6) Table S2. Fold change of compounds (18, 22, 27, 32 or 35) alone or in combination with 25 µM RTV compared to 25 µM
(§7) RTV. P values are reported in parenthesis with Bonferroni correction with significance p<0.0055; fold change >1 indicates […]
(§8) are highlighted in yellow; (-) not performed. (1) Anti-viral activity against HIV-1; (2) Compounds identification number.
(§9) Fold change of compounds compared to 25 µM RTV as reference […]

HIV-1AD02 [4] = experiment: Anti-viral activity alone or combined with 25 µM RTV, relative to 25 µM RTV, HIV-1AD02; assay type: cell-based
Protocol: as §4, §5, §6, §7, §8, §9

[5] = highest non-toxic concentration, day 4 luciferase

T1 sequence (P24740 482-580): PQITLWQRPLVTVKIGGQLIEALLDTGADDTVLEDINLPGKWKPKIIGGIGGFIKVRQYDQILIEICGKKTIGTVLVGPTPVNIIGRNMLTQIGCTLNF
T3 sequence (Q75002 493-591): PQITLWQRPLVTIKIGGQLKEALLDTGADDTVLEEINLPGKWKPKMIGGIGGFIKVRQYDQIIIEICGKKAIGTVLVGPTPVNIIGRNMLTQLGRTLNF

## Nc1nc(N)c(N=Nc2ccc(C(=O)O)c(O)c2)c(N)n1 [Compound 18]
HIV-1 PR subtype A
  Inhibition of PR subtype A: +
HIV-1 PR subtype B
  Inhibition of PR subtype B: +
HIV-1 PR subtype C
  Inhibition of PR subtype C: +
TZM-bl cells; 200 μM, day 4
  toxicity (more than 10% decline in viability): non-toxic
TZM-bl cells; compound combined with 25 μM RTV
  toxicity of combination with 25 μM RTV: non-toxic
PBMCs
  reduction of cell viability: 28%
HIV-1AD [1]; PI-sensitive variant
  IC50: 62.7 µM
HIV-1AD [1]; [5]
  reduction of replication of HIV-1AD: more than 80%
HIV-1AD02 [2]; [5]
  reduction of replication of HIV-1AD02: more than 80%
HIV-1AD02 [2]; multi PI-resistant variant
  IC50: 68.5 µM
HIV-1AD [3]; compound 25 µM with 25 µM RTV
  Fold change compared to 25 µM RTV: 0.54 fold
HIV-1AD [3]; compound 50 µM with 25 µM RTV
  Fold change compared to 25 µM RTV: 0.32 fold
HIV-1AD [3]; compound 100 µM with 25 µM RTV
  Fold change compared to 25 µM RTV: 0.40 fold
HIV-1AD [3]; compound alone, 25 µM
  Fold change compared to 25 µM RTV: 1.12 fold
HIV-1AD [3]; compound alone, 50 µM
  Fold change compared to 25 µM RTV: 1.13 fold
HIV-1AD [3]; compound alone, 100 uM
  Fold change compared to 25 µM RTV: 0.87 fold
HIV-1AD02 [4]; HIV-1AD02, compound 25 µM with 25 µM RTV
  Fold change compared to 25 µM RTV: 0.75 fold
HIV-1AD02 [4]; HIV-1AD02, compound 50 µM with 25 µM RTV
  Fold change compared to 25 µM RTV: 0.60 fold
HIV-1AD02 [4]; HIV-1AD02, compound 100 µM with 25 µM RTV
  Fold change compared to 25 µM RTV: 0.53 fold
HIV-1AD02 [4]; HIV-1AD02, compound alone, 25 µM
  Fold change compared to 25 µM RTV: 3.42 fold
HIV-1AD02 [4]; HIV-1AD02, compound alone, 50 µM
  Fold change compared to 25 µM RTV: 3.24 fold
HIV-1AD02 [4]; HIV-1AD02, compound alone, 100 uM
  Fold change compared to 25 µM RTV: 2.41 fold
